Measured values from patent US7417156B2, “Orally active, antimalarial, anticancer, artemisinin-derived trioxane dimers” (Johns Hopkins University, priority 2002, dated 2008).
Like-named read-outs stand apart in the source and are kept apart here.

Legend:
OVCAR-8 = test: NCI 60 cell line panel screen (SRB); format: cell-based, human; settings: for Log10LC50 / Log10TGI50: OVCAR-8 (Ovarian Cancer); for Log10LC50: LC50: PG=−50; for Log10TGI50: TGI: PG=0; for Log10GI50: Ovarian Cancer, OVCAR-8
HOP-62 = test: NCI 60 cell line panel screen (SRB); format: cell-based, human; settings: for Log10LC50 / Log10TGI50: HOP-62 (Non-Small Cell Lung Cancer); for Log10LC50: LC50: PG=−50; for Log10TGI50: TGI: PG=0; for Log10GI50: Non-Small Cell Lung Cancer, HOP-62
60 cell line panel = format: cell-based; settings: for Log10LC50 Delta / Log10LC50 Range / Log10TGI50 Delta / Log10TGI50 Range: 60 cell line panel
[1] = test system: chloroquine-sensitive P. falciparum (NF54); test: Antimalarial activity in vitro, [3H]hypoxanthine incorporation; format: cell-based; settings: Plasmodium falciparum, read-out: IC50
PC-3 = test: NCI 60 cell line panel screen (SRB); format: cell-based, human; settings: for Log10LC50 / Log10TGI50: PC-3 (Prostate Cancer); for Log10LC50: LC50: PG=−50; for Log10TGI50: TGI: PG=0; for Log10GI50: Prostate Cancer, PC-3
K-562 = test: NCI 60 cell line panel screen (SRB); format: cell-based, human; settings: for Log10LC50 / Log10TGI50: K-562 (Leukemia); for Log10LC50: LC50: PG=−50; for Log10TGI50: TGI: PG=0; for Log10GI50: Leukemia, K-562
HCT-116 = test: NCI 60 cell line panel screen (SRB); format: cell-based, human; settings: for Log10GI50: Colon Cancer, HCT-116; for Log10LC50 / Log10TGI50: HCT-116 (Colon Cancer); for Log10LC50: LC50: PG=−50; for Log10TGI50: TGI: PG=0
RXF 393 = test: NCI 60 cell line panel screen (SRB); format: cell-based, human; settings: for Log10LC50 / Log10TGI50: RXF 393 (Renal Cancer); for Log10LC50: LC50: PG=−50; for Log10TGI50: TGI: PG=0; for Log10GI50: Renal Cancer, RXF 393
SNB-19 = test: NCI 60 cell line panel screen (SRB); format: cell-based, human; settings: for Log10GI50: CNS Cancer, SNB-19; for Log10LC50 / Log10TGI50: SNB-19 (CNS Cancer); for Log10LC50: LC50: PG=−50; for Log10TGI50: TGI: PG=0
SNB-75 = test: NCI 60 cell line panel screen (SRB); format: cell-based, human; settings: for Log10LC50 / Log10TGI50: SNB-75 (CNS Cancer); for Log10LC50: LC50: PG=−50; for Log10TGI50: TGI: PG=0
NCI-H460 = test: NCI 60 cell line panel screen (SRB); format: cell-based, human; settings: for Log10LC50 / Log10TGI50: NCI-H460 (Non-Small Cell Lung Cancer); for Log10LC50: LC50: PG=−50; for Log10TGI50: TGI: PG=0; for Log10GI50: Non-Small Cell Lung Cancer, NCI-H460
SK-MEL-2 = test: NCI 60 cell line panel screen (SRB); format: cell-based, human; settings: for Log10LC50: SK-MEL2 (Melanoma), LC50: PG=−50; for Log10TGI50: SK-MEL-2 (Melanoma), TGI: PG=0; for Log10GI50: Melanoma, SK-MEL-2
MALME-3M = test: NCI 60 cell line panel screen (SRB); format: cell-based, human; settings: for Log10LC50 / Log10TGI50: MALME-3M (Melanoma); for Log10LC50: LC50: PG=−50; for Log10TGI50: TGI: PG=0
CAKI-1 = test: NCI 60 cell line panel screen (SRB); format: cell-based, human; settings: CAKI-1 (Renal Cancer); LC50: PG=−50
SF-539 = test: NCI 60 cell line panel screen (SRB); format: cell-based, human; settings: for Log10GI50: CNS Cancer, SF-539; for Log10LC50: LC50: PG=−50
MDA-MB-435 = test: NCI 60 cell line panel screen (SRB); format: cell-based, human; settings: for Log10GI50: Breast Cancer, MDA-MB-435
OVCAR-3 = test: NCI 60 cell line panel screen (SRB); format: cell-based, human; settings: for Log10LC50 / Log10TGI50: OVCAR-3 (Ovarian Cancer); for Log10LC50: LC50: PG=−50; for Log10TGI50: TGI: PG=0; for Log10GI50: Ovarian Cancer, OVCAR-3
[2] = mean value over the 60 cell line panel

## C[C@@H]1CC[C@H]2[C@@H](C)C(=O)O[C@@H]3O[C@]4(C)CC[C@@H]1[C@]32OO4 [Artemisinin]
OVCAR-8
  Log10LC50: >−4.00 log10M
  Log10TGI50: >−4.00 log10M
  Log10GI50: >−4.00
HOP-62
  Log10LC50: >−4.00 log10M
  Log10TGI50: >−4.00 log10M
  Log10GI50: >−4.00
60 cell line panel
  Log10GI50 Delta: −4.07
  Log10GI50 Range: 0.73
  Log10LC50 Delta: −4.00
  Log10LC50 Range: 0.00
  Log10TGI50 Delta: −4.00
  Log10TGI50 Range: 0.06
[1]; NF54, Table I, NF54 strain
  IC50: 9.2 ± 1.7 nM
[1]; NF54, running text b206, artemisinin
  IC50: 7.7 nM
PC-3
  Log10LC50: >−4.00 log10M
  Log10TGI50: −4.00 log10M
  Log10GI50: −4.17
K-562
  Log10LC50: >−4.00 log10M
  Log10TGI50: >−4.00 log10M
  Log10GI50: −4.33
HCT-116
  Log10GI50: −4.18
  Log10LC50: >−4.00 log10M
  Log10TGI50: >−4.00 log10M
RXF 393
  Log10LC50: >−4.00 log10M
  Log10TGI50: >−4.00 log10M
  Log10GI50: −4.08
SNB-19
  Log10GI50: >−4.00
  Log10LC50: >−4.00 log10M
  Log10TGI50: >−4.00 log10M
SNB-75; CNS Cancer, SNB-75
  Log10GI50: >−4.00
SNB-75
  Log10LC50: >−4.00 log10M
  Log10TGI50: >−4.00 log10M
NCI-H460
  Log10LC50: >−4.00 log10M
  Log10TGI50: >−4.00 log10M
  Log10GI50: >−4.00
SK-MEL-2
  Log10LC50: >−4.00 log10M
  Log10TGI50: >−4.00 log10M
MALME-3M
  Log10LC50: >−4.00 log10M
  Log10TGI50: −4.06 log10M

## C[C@@H]1CC[C@H]2[C@@H](C)C(CC(O)(COC(=O)CCC(=O)O)CC3OC4O[C@]5(C)CC[C@H]6[C@H](C)CC[C@@H]([C@H]3C)C46OO5)OC3O[C@]4(C)CCC1C32OO4 (stereo partly drawn) [Compound 9, tertiary alcohol primary succinate ester]
OVCAR-8
  Log10LC50: >−4.30 log10M
  Log10TGI50: >−4.30 log10M
  Log10GI50: −5.12
CAKI-1
  Log10LC50: >−4.30 log10M
HOP-62
  Log10LC50: >−4.30 log10M
  Log10TGI50: >−4.30 log10M
  Log10GI50: −5.69
60 cell line panel
  Log10GI50 Delta: 1.28
  Log10GI50 Range: 3.94
  Log10LC50 Delta: 0.29
  Log10LC50 Range: 0.30
  Log10TGI50 Delta: 3.58
  Log10TGI50 Range: 4.00
60 cell line panel; colon cancer KM12, ovarian cancer OVCAR 3, breast cancer MDA-MB-435
  growth inhibition in words: selectively and strong inhibitory
60 cell line panel; mean over panel
  Log10GI50 MG MID: −7.02
60 cell line panel; [2]
  Log10LC50 MG MID: −4.31 log10M
  Log10TGI50 MG MID: −4.72 log10M
[1]; NF54, Table I, NF54 strain
  IC50: 3 nM
PC-3
  Log10LC50: >−4.30 log10M
  Log10TGI50: >−4.30 log10M
  Log10GI50: <−8.30
K-562
  Log10LC50: >−4.30 log10M
  Log10TGI50: >−4.30 log10M
  Log10GI50: −8.30
HCT-116
  Log10GI50: <−8.30
  Log10LC50: >−4.30 log10M
  Log10TGI50: >−4.30 log10M
SF-539
  Log10GI50: −4.90
SF-539; SF-539 (CNS Cancer)
  Log10LC50: >−4.30 log10M
SF-539; SF-539 (CNS Cancer), TGI: PG=0
  Log10TGI50: −4.50 log10M
RXF 393
  Log10LC50: >−4.30 log10M
  Log10TGI50: −4.45 log10M
  Log10GI50: −7.67
MDA-MB-435
  Log10GI50: <−8.30
MDA-MB-435; MDA-MB-435 (Breast Cancer), LC50: PG=−50
  Log10LC50: >−4.30 log10M
MDA-MB-435; MDA-MB-435 (Breast Cancer), TGI: PG=0
  Log10TGI50: >−4.30 log10M
SNB-75
  Log10LC50: >−4.30 log10M
  Log10TGI50: >−4.30 log10M
OVCAR-3
  Log10LC50: >−4.30 log10M
  Log10TGI50: <−8.30 log10M
  Log10GI50: <−8.30
NCI-H460
  Log10LC50: >−4.30 log10M
  Log10TGI50: >−4.30 log10M
  Log10GI50: <−8.30
SK-MEL-2
  Log10GI50: −4.88
  Log10LC50: >−4.30 log10M
  Log10TGI50: >−4.30 log10M
MALME-3M
  Log10LC50: >−4.30 log10M
  Log10TGI50: −5.14 log10M
MALME-3M; Melanoma, MALME-3M
  Log10GI50: <−8.30

## CC(=O)O[C@H]1C(=O)[C@@]2(C)[C@H]([C@H](OC(=O)c3ccccc3)[C@]3(O)C[C@H](OC(=O)[C@H](O)[C@@H](NC(=O)c4ccccc4)c4ccccc4)C(C)=C1C3(C)C)[C@]1(OC(C)=O)CO[C@@H]1C[C@@H]2O [Paclitaxel, paclitaxel, reference compound]
OVCAR-8
  Log10LC50: >−4.00 log10M
  Log10GI50: −10.75
CAKI-1
  Log10LC50: >−4.00 log10M
HOP-62
  Log10LC50: −4.10 log10M
  Log10TGI50: −4.80 log10M
  Log10GI50: −9.67
60 cell line panel
  Log10GI50 Delta: −10.15
  Log10GI50 Range: 8.00
  Log10LC50 Delta: −4.06
  Log10LC50 Range: .045
  Log10TGI50 Delta: −4.54
  Log10TGI50 Range: 7.20
PC-3
  Log10LC50: >−4.00 log10M
  Log10TGI50: >−4.00 log10M
  Log10GI50: −10.85
K-562
  Log10LC50: >−4.00 log10M
  Log10TGI50: >−4.00 log10M
  Log10GI50: −10.83
HCT-116
  Log10GI50: <−13.00
  Log10LC50: >−4.00 log10M
  Log10TGI50: −4.82 log10M
SF-539
  Log10GI50: −11.09
SF-539; SF-539 (CNS Cancer)
  Log10LC50: >−4.00 log10M
RXF 393
  Log10LC50: >−4.00 log10M
  Log10TGI50: >−4.00 log10M
  Log10GI50: −8.32
SNB-19
  Log10GI50: −8.98
  Log10LC50: >−4.00 log10M
  Log10TGI50: >−4.00 log10M
MDA-MB-435
  Log10GI50: <−13.00
OVCAR-3
  Log10LC50: >−4.00 log10M
  Log10TGI50: −4.55 log10M
  Log10GI50: −10.40
NCI-H460
  Log10LC50: >−4.00 log10M
  Log10TGI50: −4.92 log10M
  Log10GI50: −12.16
SK-MEL-2
  Log10GI50: −9.53
  Log10LC50: >−4.00 log10M
MALME-3M
  Log10LC50: −4.11 log10M
  Log10TGI50: −4.46 log10M
